Test results as given in patent US10377719B2, “Trypanosomes inhibitors” (Hoffmann-La Roche Inc., priority 2015, dated 2019).

test system: Trypanosoma brucei rhodesiense STIB900; assay: Activity against Trypanosoma brucei rhodesiense STIB900 (Alamar Blue assay); format: cell-based; conditions: Trypanosoma brucei, 70 h, bloodstream forms of T. b. rhodesiense STIB 900, 70 h incubation
Method: Activity Against Trypanosoma brucei Rhodesiense STIB900
This stock was isolated in 1982 from a human patient in Tanzania and after several mouse passages cloned and adapted to axenic culture conditions (Baltz, T., D. Baltz, C. Giroud, and J. Crockett. 1985, Cultivation in a semi-defined medium of animal infective forms of Trypanosoma brucei, T. equiperdum, T. evansi, T. rhodesiense and T. gambiense. EMBO Journal 4:1273-1277). Minimum Essential Medium (50 μl) supplemented with 25 mM HEPES, 1 g/l additional glucose, 1% MEM non-essential amino acids (100×), 0.2 mM 2-mercaptoethanol, 1 mM Na-pyruvate and 15% heat inactivated horse serum was added to each well of a 96-well microtiter plate. Serial drug dilutions of eleven 3-fold dilution steps covering a range from […] were prepared. Then 4×10^3 bloodstream forms of T. b. rhodesiense STIB 900 in 50 μl was added to each well and the plate incubated at 37° C. under a 5% CO2 atmosphere for 70 h. 10 μl Alamar Blue (resazurin, 12.5 mg in 100 ml double-distilled water) was then added to each well and incubation continued for a further 2-4 h (Räz, B., M. Iten, Y. Grether-Buhler, R. Kaminsky, and R. Brun. 1997, The Alamar Blue assay to determine drug sensitivity of African trypanosomes (T.b. rhodesiense and T.b. gambiense) in vitro. Acta Trop 68:139-47). Then the plates were read with a Spectramax Gemini XS microplate fluorometer (Molecular Devices Cooperation, Sunnyvale, Calif., USA) using an excitation wave length of 536 nm and an emission wave length of 588 nm. The IC50 values were calculated by linear regression (Huber, W. Koella, J. C. 1993, A comparison of the three methods of estimating EC50 in studies of drug resistance of malaria parasites. Acta Trop. 55, 257-261) from the sigmoidal dose inhibition curves using SoftmaxPro software (Molecular Devices Cooperation, Sunnyvale, Calif., USA). Melarsoprol is used as control.

| SMILES | IC50 [µM] |
| --- | --- |
| N#CC1(NC(=O)[C@H](Cc2ccc(OC(F)(F)F)c(Cl)c2)NC(=O)c2cnn(-c3cccnc3)n2)CC1 [Example 26, N-[(2S)-3-[3-chloro-4-(trifluoromethoxy)phenyl]-1-[(1-cyanocyclopropyl)amino]-1-oxopropan-2-yl]-2-pyridin-3-yltriazole-4-carboxamide] | 0.001 |
| N#CC1(NC(=O)[C@H](Cc2ccc(OC(F)(F)F)c(Cl)c2)NC(=O)c2cnn(-c3ccc(F)nc3)n2)CC1 [Example 30, N-[(2S)-3-[3-chloro-4-(trifluoromethoxy)phenyl]-1-[(1-cyanocyclopropyl)amino]-1-oxopropan-2-yl]-2-(6-fluoropyridin-3-yl)triazole-4-carboxamide] | 0.005 |
| N#CC1(NC(=O)[C@H](Cc2ccc(OCc3ccccc3)cc2)NC(=O)c2cnn(-c3ccc(F)cc3)n2)CC1 [Example 31, N-[(2S)-1-[(1-cyanocyclopropyl)amino]-1-oxo-3-(4-phenylmethoxyphenyl)propan-2-yl]-2-(4-fluorophenyl)triazole-4-carboxamide] | 0.019 |
| CC(C)n1ncc(C(=O)N[C@@H](Cc2ccc(OC(F)(F)F)c(Cl)c2)C(=O)NC2(C#N)CC2)n1 [Example 33, N-[(2S)-3-[3-chloro-4-(trifluoromethoxy)phenyl]-1-[(1-cyanocyclopropyl)amino]-1-oxopropan-2-yl]-2-propan-2-yltriazole-4-carboxamide] | 0.004 |
| Cn1ncc(C(=O)N[C@@H](Cc2ccc(OC(F)(F)F)c(Cl)c2)C(=O)NC2(C#N)CC2)n1 [Example 34, N-[(2S)-3-[3-chloro-4-(trifluoromethoxy)phenyl]-1-[(1-cyanocyclopropyl)amino]-1-oxopropan-2-yl]-2-methyltriazole-4-carboxamide] | 0.04 |
| N#CC1(NC(=O)[C@H](Cc2ccc(OC(F)(F)F)c(Cl)c2)NC(=O)c2cnn(-c3ccc(Br)cc3)n2)CC1 [Example 35, 2-(4-bromophenyl)-N-[(2S)-3-[3-chloro-4-(trifluoromethoxy)phenyl]-1-[(1-cyanocyclopropyl)amino]-1-oxopropan-2-yl]triazole-4-carboxamide] | 0.028 |
| CC(C)(C)n1ncc(C(=O)N[C@@H](Cc2ccc(OC(F)(F)F)c(Cl)c2)C(=O)NC2(C#N)CC2)n1 [Example 37, 2-tert-butyl-N-[(2S)-3-[3-chloro-4-(trifluoromethoxy)phenyl]-1-[(1-cyanocyclopropyl)amino]-1-oxopropan-2-yl]triazole-4-carboxamide] | 0.004 |

Other lines, results leading:

| IC50 [µM] | SMILES |
| --- | --- |
| 0.516 | N#CC1(NC(=O)[C@H](Cc2ccccc2)NC(=O)c2cnn(-c3ccc(F)cc3)n2)CC1 [Example 27, N-[(2S)-1-[(1-cyanocyclopropyl)amino]-1-oxo-3-phenylpropan-2-yl]-2-(4-fluorophenyl)triazole-4-carboxamide] |
| 0.19 | N#CC1(NC(=O)[C@H](Cc2ccc(OCC3CC3)c(Cl)c2)NC(=O)c2cnn(-c3ccc(F)cc3)n2)CC1 [Example 28, N-[(2S)-3-[3-chloro-4-(cyclopropylmethoxy)phenyl]-1-[(1-cyanocyclopropyl)amino]-1-oxopropan-2-yl]-2-(4-fluorophenyl)triazole-4-carboxamide] |
| 0.007 | N#CC1(NC(=O)[C@H](Cc2ccc(Cl)c(Cl)c2)NC(=O)c2cnn(-c3ccc(F)cc3)n2)CC1 [Example 29, N-[(2S)-1-[(1-cyanocyclopropyl)amino]-3-(3,4-dichlorophenyl)-1-oxopropan-2-yl]-2-(4-fluorophenyl)triazole-4-carboxamide] |
| 2.23 | CC(C)C[C@H](NC(=O)c1cnn(-c2ccc(F)cc2)n1)C(=O)NC1(C#N)CC1 [Example 32, N-[(2S)-1-[(1-cyanocyclopropyl)amino]-4-methyl-1-oxopentan-2-yl]-2-(4-fluorophenyl)triazole-4-carboxamide] |
| 0.065 | COCCOc1ccc(C[C@H](NC(=O)c2cnn(-c3ccc(F)cc3)n2)C(=O)NC2(C#N)CC2)cc1Cl [Example 36, N-[(2S)-3-[3-chloro-4-(2-methoxyethoxy)phenyl]-1-[(1-cyanocyclopropyl)amino]-1-oxopropan-2-yl]-2-(4-fluorophenyl)triazole-4-carboxamide] |
